Broadly, the IC50 is the concentration needed to halve the response being measured.

We go through 35 compounds from EP3964206A1, “COMPOUNDS FOR THE TREATMENT OF COVID-19” (priority 2020, dated 2022).

This test deals with SARS-CoV-2. Nature of the test: microbe, parasite or virus in culture. In kind it is cell-based. The settings on record: for Emax: read-out: Maximum confluence reached (%).
Where [1] appears, read: Severe acute respiratory syndrome coronavirus 2, 120 h.

Where a name gives a salt, the structure may show the parent alone. Read-outs that look alike come from different tables or passages of the source.

“(4R,4aS)-18-Ethenyl-4,4a-dihydro-3,4-bis(methoxycarbonyl)-4a,8,14,19-tetramethyl-24H,26H-benzo[b]porphine-9,13-dipropanoic acid monomethyl ester [Compound 39]”: the “Maximum confluence reached (%)” value is 89.5%. For the same compound, the IC50 (read-out: IC50) was determined as 30 µM.
On to `CN1CCN(CC/C=C2/c3ccccc3Sc3ccc(S(=O)(=O)N(C)C)cc32)CC1` [Compound 109, (Z)-N,N-Dimethyl-9-[3-(4-methyl-1-piperazinyl)propylidene]thioxanthene-2-sulfonamide], for which the Emax under setting [1] came out at 36.5%.
With `CCC(=C(c1ccc(O)cc1)c1ccc(OCCNC)cc1)c1ccccc1` [Compound 91, 4-[1-[4-[2-(Methylamino)ethoxy]phenyl]-2-phenyl-1-butenyl]phenol hydrochloride], under setting [1], inhibition was half-maximal at 6.34 µM (IC50) and the Emax is 35.7%.
`COc1cc(NCc2ccc3nc(N)nc(N)c3c2C)cc(OC)c1OC` [Compound 2, 2,4-Diamino-5-methyl-6-[(3,4,5-trimethoxyanilino)methyl]quinazoline]: the Emax under setting [1] was 78.2%.
`C[C@@H]1COCCN1c1cc(=O)n2c(n1)N(Cc1cncc(Cl)c1)[C@H](C(F)(F)F)CC2` [Compound 54, (8S)-9-[(5-Chloropyridin-3-yl)methyl]-2-[(3R)-3-methylmorpholin-4-yl]-8-(trifluoromethyl)-6,7,8,9-tetrahydro-4H-pyrimido[1,2-a]pyrimidin-4-one]: under setting [1], the Emax was 89%.
Same read-out and setting: next, `COc1ccccc1[C@H](Cn1c(=O)n(C(C)(C)C(=O)O)c(=O)c2c(C)c(-c3ncco3)sc21)OC1CCOCC1` [Compound 61, 2-[1-[(2R)-2-(2-Methoxyphenyl)-2-(tetrahydro-2H-pyran-4-yloxy)ethyl]-5-methyl-6-(1,3-oxazol-2-yl)-2,4-dioxo-1,4-dihydrothieno[2,3-d]pyrimidin-3(2H)-yl]-2-methylpropanoic acid]: 78.2%.
With `Cn1cc(-c2ccncc2)c(-c2ccc(OCc3ccc4ccccc4n3)cc2)n1` [Compound 83, 2-[4-[1-Methyl-4-(4-pyridyl)-1H-pyrazol-3-yl]phenoxymethyl]quinoline succinate], the Emax under setting [1] stood at 36.7%.
Still for that read-out and setting: the same measure for `COc1cc2c(N3CCN(C(=O)Nc4ccc(OC(C)C)cc4)CC3)ncnc2cc1OCCCN1CCCCC1` [Compound 35, N-(4-Isopropoxyphenyl)-4-[6-methoxy-7-[3-(1-piperidinyl)propoxy]quinazolin-4-yl]piperazine-1-carboxamide]: 80.1%; for `CC1(N2CCC(n3c([C@@H]4CCCNC4)nc4ccccc43)CC2)CCCCCCC1` [Compound 51, 1-[1-(1-Methylcyclooctyl)piperidin-4-yl]-2-[3(R)-piperidinyl]-1H-benzimidazole]: 57.8%.
As to `CC(C)(C)c1cc(C=C(C#N)C#N)cc(C(C)(C)C)c1O` [Compound 103, (3,5-Di-tert-butyl-4-hydroxybenzylidene)malononitrile], under setting [1], the IC50 stood at 205 µM.
Regarding `CC(C)C(=O)OCC(=O)[C@@]12O[C@H](C3CCCCC3)O[C@@H]1C[C@H]1[C@@H]3CCC4=CC(=O)C=C[C@]4(C)[C@H]3[C@@H](O)C[C@@]12C` [Compound 96, 16alpha,17alpha-[(R)-Cyclohexylmethylenedioxy]-11beta-hydroxy-21-(isobutyryloxy)pregna-1,4-dien-3-one], under setting [1], 47 µM corresponded to half-maximal inhibition (IC50) and the Emax is 35.2%.
The corresponding values for `CC(C)(C)c1cc(C=C(C#N)C#N)cc(Br)c1O` [Compound 99, 2-(3-Bromo-5-tert-butyl-4-hydroxybenzylidene)propanedinitrile] are 7.23 µM and 37.3%.
Take `O=C(O)Cc1cccc(OCCCN(Cc2cccc(C(F)(F)F)c2Cl)CC(c2ccccc2)c2ccccc2)c1` [Compound 71, 2-[3-[3-[N-[2-Chloro-3-(trifluoromethyl)benzyl]-N-(2,2-diphenylethyl)amino]propoxy]phenyl]acetic acid]: the Emax under setting [1] was 38%.
Take `Oc1c(Cl)cc(Cl)cc1Sc1cc(Cl)cc(Cl)c1O` [Compound 102, 2,2'-Thio-bis(4,6-dichlorophenol)]: the Emax under setting [1] turned out to be 31.2%.
In the case of `Nc1ncc(-c2ccnc(Nc3ccncc3)n2)c(CC2CC2)n1` [Compound 20, 4'-(Cyclopropylmethyl)-N2-(pyridin-4-yl)-4,5'-bipyrimidine-2,2'-diamine], under setting [1], the Emax stood at 98.2%.
As to `Nc1nc(=S)c2ncn([C@@H]3O[C@H](CO)[C@@H](O)[C@H]3O)c2[nH]1` [Compound 55, 2-amino-9-[(2R,3R,4S,5R)-3,4-dihydroxy-5-(hydroxymethyl)oxolan-2-yl]-3H-purine-6-thione], the Emax under setting [1] turned out to be 51.5%.
`CN(C)c1cccc(-c2c3c(=O)n(-c4ccccc4Cl)[nH]c3cc(=O)n2C)c1` [Compound 13, 2-(2-Chlorophenyl)-4-[3-(dimethylamino)phenyl]-5-methyl-1H-pyrazolo[4,3-c]pyridine-3,6(2H,5H)-dione]: under setting [1], it took 7.57 µM to reach half-maximal inhibition (IC50) and the Emax came to 102%.
Consider `Cc1[nH]c(/C=C2\C(=O)Nc3ccc(S(=O)(=O)Cc4c(Cl)cccc4Cl)cc32)c(C)c1C(=O)N1CCC[C@@H]1CN1CCCC1` [Compound 53, 5-(2,6-Dichlorobenzylsulfonyl)-3(Z)-[3,5-dimethyl-4-[2(R)-(pyrrolidin-1-ylmethyl)pyrrolidin-1-ylcarbonyl]-1H-pyrrol-2-ylmethylene]-2,3-dihydro-1H-indol-2-one], for which the Emax under setting [1] worked out at 95.7%.
On to `COc1cc2ncnc(Nc3cccc(Br)c3)c2cc1OC` [Compound 68, 4-(3-Bromophenylamino)-6,7-dimethoxyquinazoline], for which the Emax under setting [1] worked out at 54.5%.
As for `NC(=NC1C2CC3CC(C2)CC1C3)Nc1ccc(I)cc1` (stereo not shown) [Compound 49, 2-(2-adamantyl)-1-(4-iodophenyl)guanidine], under setting [1], the Emax worked out at 81.8%.
For `Cc1cccc(Nc2nc(-c3ccncc3)cs2)c1` [Compound 85, N-(3-Methylphenyl)-4-(4-pyridyl)thiazol-2-amine], the Emax under setting [1] was 47.8%.
On the same count and under the same terms, next, `CCCCN(CCCC)CCC(O)c1cc2c(Cl)cc(Cl)cc2c2cc(C(F)(F)F)ccc12` (racemic) [Compound 40, (±)-1,3-Dichloro-9-[3-(dibutylamino)-1-hydroxypropyl]-6-(trifluoromethyl)phenanthrene hydrochloride]: 51.8%.
As for `O=C(O)c1ccc(N2C(=O)C(=Cc3ccc(-c4ccc([N+](=O)[O-])cc4)o3)C=C2c2ccccc2)cc1` [Compound 105, 4-[3-[5-(4-Nitrophenyl)furan-2-ylmethylene]-2-oxo-5-phenyl-2,3-dihydro-1H-pyrrol-1-yl]benzoic acid], under setting [1], inhibition was half-maximal at 236 µM (IC50) and the Emax turned out to be 52.1%.
In the case of `Cn1c(Nc2ccc(C(F)(F)F)cc2)nc2cc(Oc3ccnc(-c4nc(C(F)(F)F)c[nH]4)c3)ccc21` [Compound 70, 1-Methyl-N-[4-(trifluoromethyl)phenyl]-5-[2-[4-(trifluoromethyl)-1H-imidazol-2-yl]pyridin-4-yloxy]-1H-benzimidazol-2-amine], the Emax under setting [1] was determined as 44.1%.
As to `CCC(C/C=C/c1ccccc1)(c1ccccc1)N(C)CC1CC1` (single isomer, unassigned; (+)) [Compound 89, (+)-N-(Cyclopropylmethyl)-N-[1-ethyl-1,4-diphenyl-3(E)-butenyl]-N-methylamine], under setting [1], the IC50 is 11.2 µM and the Emax is 58.3%.
For `CNCc1ccc(-c2cc(-c3nc(-c4ccc(S(=O)(=O)C(C)C)cc4)cnc3N)on2)cc1` [Compound 34, 3-[3-[4-[(Methylamino)methyl]phenyl]-1,2-oxazol-5-yl]-5-[4-(propan-2-ylsulfonyl)phenyl]pyrazin-2-amine], under setting [1], the Emax amounted to 99.2%.
As for `Nc1ncnc2c1ncn2[C@@H]1CC[C@@H](O)[C@H]1O` [Compound 74, (1R,2S,3R)-9-(2,3-Dihydroxycyclopentyl)adenine], under setting [1], the Emax was 38%.
Consider `N#Cc1cccc(C#N)c1-c1nc2c3ccc(Cl)cc3c3ccccc3c2[nH]1` [Compound 64, 2-(6-Chloro-1H-phenanthro[9,10-d]imidazol-2-yl)benzene-1,3-dicarbonitrile], for which the Emax under setting [1] was found to be 98.5%.
With `CCCCOCCOc1ccc(-c2ccc3c(c2)C=C(C(=O)Nc2ccc([S@@+]([O-])Cc4cncn4CCC)cc2)CCCN3CC(C)C)cc1` [Compound 65, (-)-(S)-8-[4-(2-Butoxyethoxy)phenyl]-1-isobutyl-N-[4-(1-propyl-1H-imidazol-5-ylmethylsulfinyl)phenyl]-1,2,3,4-tetrahydro-1-benzazocine-5-carboxamide], under setting [1], the midpoint of inhibition, the IC50, lay at 55 µM and the Emax is 70.9%.
For `CCN(CC)Cc1cc(Nc2ccnc3cc(Cl)ccc23)ccc1O` [Compound 106, 4-(7-Chloroquinolin-4-ylamino)-2-(diethylaminomethyl)phenol hydrochloride], under setting [1], the half-maximal inhibitory concentration (IC50) was 21.5 µM and the Emax was found to be 37.5%.
As for `CC(C)N1CCN(c2ccc(C(=O)c3c(-c4ccc(O)cc4)sc4cc(O)ccc34)cc2)CC1` [Compound 87, 1-[6-Hydroxy-2-(4-hydroxyphenyl)-1-benzothien-3-yl]-1-[4-(4-isopropylpiperazin-1-yl)phenyl]methanone], the Emax under setting [1] amounted to 41%.
Regarding `O=C(c1c2ccccc2cc2ccccc12)N1CCC(N2CCC[C@@H](C(=O)N3CCOCC3)C2)CC1` [Compound 81, 1-[1'-(Anthracen-9-ylcarbonyl)-1,4'-bipiperidin-3(R)-yl]-1-(4-morpholinyl)methanone], the Emax under setting [1] is 51%.
In the case of `C/C(=C\c1ccc(C(=O)O)cc1)c1ccc2c(c1)C(C)(C)CCC2(C)C` [Compound 26, 4-[2-(5,5,8,8-Tetramethyl-5,6,7,8-tetrahydronaphthalen-2-yl)-1(E)-propenyl]benzoic acid], under setting [1], half-maximal inhibition (IC50) was put at 33.7 µM and the Emax amounted to 106%.
Consider `CC(C)C[C@H](NC(=O)CNC(=O)c1cc(Cl)ccc1Cl)B(O)O` [Compound 108, 1(R)-[2-(2,5-Dichlorobenzamido)acetamido]-3-methylbutylboronic acid], for which, under setting [1], the IC50 was determined as 135 µM and the Emax came out at 30.8%.
On to `CC(C)c1cnn2c(NCc3ccccc3)cc(NCCCCCCN)nc12` [Compound 48, N5-(6-Aminohexyl)-N7-benzyl-3-isopropylpyrazolo[1,5-a]pyrimidine-5,7-diamine], for which, under setting [1], the Emax is 47.3%.
